PubChem BioAssay AID1845219 (Molecular Pharmacology Branch, DTP, NCI, 2023)
pIC50: −log10 of the molar value.

Test system: SYO-1 tumor spheroids, viability % test/control
Experiment: Anticancer human tumor SYO-1 cell line growth inhibition;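 further: spheroids exposed to agents for 7 days before viability read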;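 on viability, T/C: 100% = DMSO vehicle control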
Conditions: spheroids with HUVEC and MSC; for pIC50: curve of first compound; for viability, T/C: stronger effect = lower value
Outline: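 Complex tumor spheroids combined malignant cells with endothelial cells and mesenchymal stem cells. DNA-damaging drugs and DNA repair inhibitors were tested alone and in combination, at half-log dilutions down from clinical Cmax (top 10 microM if Cmax unknown), 0.25% DMSO final.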

[1] = second compound 1 µM, first compound 0.00949 µM
[2] = second compound 1 µM, first compound 0.03 µM
[3] = second compound 1 µM, first compound 0.0949 µM
[4] = second compound 1 µM, first compound 0.3 µM
[5] = second compound 1 µM, first compound 0.949 µM
[6] = second compound 1 µM, first compound 3 µM
[7] = second compound 3.16 µM, first compound 0.00949 µM
[8] = second compound 3.16 µM, first compound 0.03 µM
[9] = second compound 3.16 µM, first compound 0.0949 µM
[10] = second compound 3.16 µM, first compound 0.3 µM
[11] = second compound 3.16 µM, first compound 0.949 µM
[12] = second compound 3.16 µM, first compound 3 µM
[13] = second compound 10 µM, first compound 0.00949 µM
[14] = second compound 10 µM, first compound 0.03 µM
[15] = second compound 10 µM, first compound 0.0949 µM
[16] = second compound 10 µM, first compound 0.3 µM
[17] = second compound 10 µM, first compound 0.949 µM
[18] = second compound 10 µM, first compound 3 µM
[19] = second compound 31.6 µM, first compound 0.00949 µM
[20] = second compound 31.6 µM, first compound 0.03 µM
[21] = second compound 31.6 µM, first compound 0.0949 µM
[22] = second compound 31.6 µM, first compound 0.3 µM
[23] = second compound 31.6 µM, first compound 0.949 µM
[24] = second compound 31.6 µM, first compound 3 µM
[25] = second compound 100 µM, first compound 0.00949 µM
[26] = second compound 100 µM, first compound 0.03 µM
[27] = second compound 100 µM, first compound 0.0949 µM
[28] = second compound 100 µM, first compound 0.3 µM
[29] = second compound 100 µM, first compound 0.949 µM
[30] = second compound 100 µM, first compound 3 µM

CNCc1ccc(-c2cc(-c3nc(-c4ccc(S(=O)(=O)C(C)C)cc4)cnc3N)on2)cc1 + Cn1nnc2c(C(N)=O)ncn2c1=O
pIC50 (second compound 1 µM): 6.84 | pIC50 (second compound 3.16 µM): 6.79 | pIC50 (second compound 10 µM): 6.83 | pIC50 (second compound 31.6 µM): 7.09 | pIC50 (second compound 100 µM): 7.32 | viability, T/C [1]: 105% | viability, T/C [2]: 98.7% | viability, T/C [3]: 77.6% | viability, T/C [4]: 2.58% | viability, T/C [5]: 0.22% | viability, T/C [6]: 0.09% | viability, T/C [7]: 105% | viability, T/C [8]: 103% | viability, T/C [9]: 91.6% | viability, T/C [10]: 2.75% | viability, T/C [11]: 0.12% | viability, T/C [12]: 0.09% | viability, T/C [13]: 107% | viability, T/C [14]: 99% | viability, T/C [15]: 79.6% | viability, T/C [16]: 1.77% | viability, T/C [17]: 0.13% | viability, T/C [18]: 0.1% | viability, T/C [19]: 111% | viability, T/C [20]: 106% | viability, T/C [21]: 40.9% | viability, T/C [22]: 1.76% | viability, T/C [23]: 0.23% | viability, T/C [24]: 0.11% | viability, T/C [25]: 107% | viability, T/C [26]: 77.2% | viability, T/C [27]: 9.17% | viability, T/C [28]: 1.95% | viability, T/C [29]: 0.23% | viability, T/C [30]: 0.18%

Cc1sc2c(c1C)C(c1ccc(Cl)cc1)=NC(CC(=O)Nc1ccc(O)cc1)c1nnc(C)n1-2 (stereo not given) + Cn1nnc2c(C(N)=O)ncn2c1=O
pIC50 (second compound 1 µM): 7.19 | pIC50 (second compound 3.16 µM): 7.20 | pIC50 (second compound 10 µM): 7.23 | pIC50 (second compound 31.6 µM): 7.27 | pIC50 (second compound 100 µM): 7.58 | viability, T/C [1]: 93.6% | viability, T/C [2]: 89.6% | viability, T/C [3]: 29.7% | viability, T/C [4]: 1.14% | viability, T/C [5]: 0.56% | viability, T/C [6]: 0.57% | viability, T/C [7]: 93.6% | viability, T/C [8]: 89.3% | viability, T/C [9]: 28.6% | viability, T/C [10]: 1.02% | viability, T/C [11]: 0.71% | viability, T/C [12]: 0.61% | viability, T/C [13]: 94.3% | viability, T/C [14]: 91.3% | viability, T/C [15]: 21.4% | viability, T/C [16]: 1.06% | viability, T/C [17]: 0.76% | viability, T/C [18]: 0.54% | viability, T/C [19]: 101% | viability, T/C [20]: 84.8% | viability, T/C [21]: 15.5% | viability, T/C [22]: 1.03% | viability, T/C [23]: 0.85% | viability, T/C [24]: 0.62% | viability, T/C [25]: 91.8% | viability, T/C [26]: 44.3% | viability, T/C [27]: 1.77% | viability, T/C [28]: 1.29% | viability, T/C [29]: 0.88% | viability, T/C [30]: 0.73%

Cn1ncnc1[C@H]1c2n[nH]c(=O)c3cc(F)cc(c23)N[C@@H]1c1ccc(F)cc1 + Cn1nnc2c(C(N)=O)ncn2c1=O
pIC50 (second compound 1 µM): 7.79 | pIC50 (second compound 3.16 µM): 7.89 | pIC50 (second compound 10 µM): > 8.02 | pIC50 (second compound 31.6 µM): > 8.02 | pIC50 (second compound 100 µM): > 8.02 | viability, T/C [1]: 79.6% | viability, T/C [2]: 16.8% | viability, T/C [3]: 4.52% | viability, T/C [4]: 2.53% | viability, T/C [5]: 1.69% | viability, T/C [6]: 1.94% | viability, T/C [7]: 65% | viability, T/C [8]: 7.02% | viability, T/C [9]: 2.83% | viability, T/C [10]: 2.28% | viability, T/C [11]: 2.09% | viability, T/C [12]: 1.5% | viability, T/C [13]: 4.61% | viability, T/C [14]: 2.33% | viability, T/C [15]: 2.35% | viability, T/C [16]: 1.79% | viability, T/C [17]: 1.63% | viability, T/C [18]: 2.1% | viability, T/C [19]: 2.52% | viability, T/C [20]: 2.5% | viability, T/C [21]: 2.35% | viability, T/C [22]: 1.86% | viability, T/C [23]: 2% | viability, T/C [24]: 1.4% | viability, T/C [25]: 2.64% | viability, T/C [26]: 2.03% | viability, T/C [27]: 2.06% | viability, T/C [28]: 2.04% | viability, T/C [29]: 1.62% | viability, T/C [30]: 1.71%

O=C(c1cc(Cc2n[nH]c(=O)c3ccccc23)ccc1F)N1CCN(C(=O)C2CC2)CC1 + Cn1nnc2c(C(N)=O)ncn2c1=O
pIC50 (second compound 1 µM): 5.78 | pIC50 (second compound 3.16 µM): 5.79 | pIC50 (second compound 10 µM): 6.17 | pIC50 (second compound 31.6 µM): 6.81 | pIC50 (second compound 100 µM): > 7.02 | viability, T/C [3]: 103% | viability, T/C [4]: 96.2% | viability, T/C [5]: 88.9% | viability, T/C [6]: 9.23% | viability, T/C (second compound 1 µM, first compound 9.49 µM): 2.81% | viability, T/C (second compound 1 µM, first compound 30 µM): 1.98% | viability, T/C [9]: 103% | viability, T/C [10]: 94.3% | viability, T/C [11]: 88.4% | viability, T/C [12]: 6.01% | viability, T/C (second compound 3.16 µM, first compound 9.49 µM): 2.08% | viability, T/C (second compound 3.16 µM, first compound 30 µM): 1.94% | viability, T/C [15]: 103% | viability, T/C [16]: 94.6% | viability, T/C [17]: 31.6% | viability, T/C [18]: 2.83% | viability, T/C (second compound 10 µM, first compound 9.49 µM): 1.83% | viability, T/C (second compound 10 µM, first compound 30 µM): 1.82% | viability, T/C [21]: 76.8% | viability, T/C [22]: 13.5% | viability, T/C [23]: 3.35% | viability, T/C [24]: 2.28% | viability, T/C (second compound 31.6 µM, first compound 9.49 µM): 2.18% | viability, T/C (second compound 31.6 µM, first compound 30 µM): 1.77% | viability, T/C [27]: 3.25% | viability, T/C [28]: 2.69% | viability, T/C [29]: 2.42% | viability, T/C [30]: 2.49% | viability, T/C (second compound 100 µM, first compound 9.49 µM): 1.81% | viability, T/C (second compound 100 µM, first compound 30 µM): 1.75%
